Measurements reported in patent US11981669B2, “1,7-naphthyridine derivative and preparation method and use therefor” (CSPC ZHONGQI PHARMACEUTICAL TECHNOLOGY (SHIJIAZHUANG) CO., …, priority 2018, dated 2024).
Marks after values point to notes of the source that are not given here.

Columns and labels:
[1] = test system: rats with residual kidney; experiment: SD rat residual kidney experiment; type: in vivo, SD rats; set-up: Hematocrit / Alanine aminotransferase / Glutamic-oxalacetic transaminase: unit not given here; conditions: for Red blood cells / Alanine aminotransferase / Glutamic-oxalacetic transaminase / Hematocrit / Hemoglobin / Hepcidin: three times each week, 15 times, x ± sd; for Red blood cells: blood 24 hours after last administration; for Effect on glutamic-oxalacetic transaminase / Effect on liver glutamic-pyruvic aminotransferase: compared with the blank control group
Protocol: 79 SD rats were subjected to residual kidney surgery after anesthesia (left kidney was resected, one third of the right kidney was left, and the resected kidney part was weighed to confirm the surgical error). After 4 weeks, 45 surviving rats were subjected to blood cell dection and then assigned according to the HCT value 37 rats in good condition were selected and divided into the following groups: Link-118 (5, 10 mg/kg), Link-121 (5, 10 mg/kg), and FG-4592 (10 mg/kg), 6 rats in each treatment group, and 7 in the model group. 4 rats were assigned to the blank control group. The rats were administered three times each week (administered on Monday, Wednesday, and Friday), for 15 times, and blood was taken 24 hours after the last administration (tested by blood routine, blood biochemistry, hepcidin kit).

[2] = test system: erythropoietin; experiment: Expression of erythropoietin in vivo (plasma EPO ELISA after single oral dose); conditions: once; for EPO OD value: plasma 6 hours after administration; for Promotion of expression of erythropoietin in vivo: at 10 mg/kg;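 for all read-outs here: male C57 mice given compound by mouth, five animals per treatment group, with EPO in plasma measured by ELISA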
Protocol: (2) 30 c57 mice, male, were divided into 6 groups, 5 mice in each treatment group. […] 6 hours after the administration, blood was taken, and plasma was collected for EPO detection with an ELISA kit (R&D Co.).

[3] = biological target: hERG channels (Homo sapiens (Human), UniProt Q12809); experiment: cell-based; type: cell-based; conditions: for Inhibitory effect on hERG current at the highest test concentration: human, 30 μM
Protocol: Whole-cell patch clamp technique was used to record hERG current. A cell suspension was added to a 35 mm Petri dish, and the dish was then placed on an inverted microscope stage. After the adherence of cells, they were perfused with extracellular fluid at a flow rate of 1-2 mL/min. A glass microelectrode was drawn by a microelectrode puller in two steps, and the pipette tip resistance was between 2-5 MΩ. After establishing the whole cell recording, the clamp potential was held at −80 mV, followed by depolarization to +60 mV when given voltage stimulation and then repolarization to −50 mV to elicit hERG tail current. All recordings were performed after the current was stable. Extracellular perfusion administration started from a low concentration, staying for 5-10 min at each concentration until the current was stable, and then cells were further perfused with the next concentration.

[4] = biological target: CYP3A4-M (Homo sapiens (Human), UniProt P08684); experiment: CYP enzyme inhibition assay; type: in vitro ADME
Description: (§1) The compounds of the present disclosure were subjected to the CYP450 enzyme inhibition assay.

[5] = biological target: CYP2C19 (Homo sapiens (Human), UniProt P33261); experiment: CYP enzyme inhibition assay; type: in vitro ADME
Description: as §1

[6] = biological target: CYP2D6 (Homo sapiens (Human), UniProt P10635); experiment: CYP enzyme inhibition assay; type: in vitro ADME
Description: as §1

[7] = biological target: CYP2C9 (Homo sapiens (Human), UniProt P11712); experiment: CYP enzyme inhibition assay; type: in vitro ADME
Description: as §1

[8] = biological target: PHD2 (Homo sapiens (Human), UniProt Q9GZT9); experiment: PHD enzyme assay (Eu-VBC TR-fluorescence); type: biochemical
Protocol: VHL/elongin B/elongin C were constructed, expressed and purified, and VHL was labeled. PHD1, PHD2 and PHD3 were constructed, expressed and purified. VBC protein was labeled with DELFIA Eu-Labeling Kit. A NeutrAvidin 96-well plate was blocked after the addition of 200 μL Blocker Casein to each well, followed by incubation for 30 min. Each well was washed 3 times by adding 200 μL of washing buffer each time. […] Each well was washed 3 times by adding 200 μL of washing buffer each time. A 1 mM Biotin solution was prepared with Blocker Casein, and 100 μL of the solution was added to each well, followed by incubation for 30 min. Each well was washed 3 times by adding 200 μL of washing buffer each time. A 20× compound solution was prepared with PHD reaction buffer, with the final concentration of DMSO being 1%. […] After mixing homogeneously, the wells were incubated for 60 min. Each well was washed 3 times by adding 200 μL of washing buffer each time A 1 ng/μL Eu-VBC solution was prepared with Eu-VBC binding buffer, and 100 μL of the solution was added to each well, followed by incubation for 60 min. Each well was washed 6 times by adding 200 μL DELFIA Wash Concentrate each time. 100 μL DELFIA Enhancement Solution was added to each well. […] The flurescence of the sample wells was recorded as FLUsample, the flurescence of the full active wells was recorded as FLU100%, and the flurescence of the blank well was recorded as FLU0%.

[9] = test system: HIF-2α; experiment: Expression of HIF-2α protein in Hep3B cells (western blot, grayscale analysis); type: cell-based, Human; conditions: for fold induction at 30 µM: Homo sapiens, 2 h, compound at 30 μM, 10 μM and 3 μM, read-out: HIF-2α level of the compound of the present disclosure/HIF-2α level of blank control
Protocol: A test compound was dissolved in dimethyl sulfoxide into a 100 mM stock solution, and then was diluted with 0.5% FBS-containing DMEM medium into 30 μM, 10 μM and 3 μM for later use. Human liver cancer cells Hep3B were seeded in a six-well plate at a density of 2.25*10^5 cells/well, 2 mL per well. After cultivation overnight, the cells were treated with compounds at different concentrations for 2 h. The proteins were extracted for western blot and further grayscale analysis.

PHD2, sequence (Q9GZT9 whole entry): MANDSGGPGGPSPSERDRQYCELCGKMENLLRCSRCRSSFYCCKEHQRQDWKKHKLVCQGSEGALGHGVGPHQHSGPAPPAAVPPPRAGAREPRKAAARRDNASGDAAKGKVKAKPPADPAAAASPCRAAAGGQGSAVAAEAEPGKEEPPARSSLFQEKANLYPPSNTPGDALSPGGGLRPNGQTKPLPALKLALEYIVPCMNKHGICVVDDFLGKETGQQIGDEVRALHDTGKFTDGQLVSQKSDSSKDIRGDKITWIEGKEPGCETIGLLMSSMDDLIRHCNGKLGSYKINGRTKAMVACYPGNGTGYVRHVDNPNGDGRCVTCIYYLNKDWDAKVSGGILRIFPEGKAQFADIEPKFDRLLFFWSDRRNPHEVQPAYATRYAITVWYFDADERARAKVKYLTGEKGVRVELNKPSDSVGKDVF
hERG channels, sequence (Q12809 whole entry, the tested form may be a part): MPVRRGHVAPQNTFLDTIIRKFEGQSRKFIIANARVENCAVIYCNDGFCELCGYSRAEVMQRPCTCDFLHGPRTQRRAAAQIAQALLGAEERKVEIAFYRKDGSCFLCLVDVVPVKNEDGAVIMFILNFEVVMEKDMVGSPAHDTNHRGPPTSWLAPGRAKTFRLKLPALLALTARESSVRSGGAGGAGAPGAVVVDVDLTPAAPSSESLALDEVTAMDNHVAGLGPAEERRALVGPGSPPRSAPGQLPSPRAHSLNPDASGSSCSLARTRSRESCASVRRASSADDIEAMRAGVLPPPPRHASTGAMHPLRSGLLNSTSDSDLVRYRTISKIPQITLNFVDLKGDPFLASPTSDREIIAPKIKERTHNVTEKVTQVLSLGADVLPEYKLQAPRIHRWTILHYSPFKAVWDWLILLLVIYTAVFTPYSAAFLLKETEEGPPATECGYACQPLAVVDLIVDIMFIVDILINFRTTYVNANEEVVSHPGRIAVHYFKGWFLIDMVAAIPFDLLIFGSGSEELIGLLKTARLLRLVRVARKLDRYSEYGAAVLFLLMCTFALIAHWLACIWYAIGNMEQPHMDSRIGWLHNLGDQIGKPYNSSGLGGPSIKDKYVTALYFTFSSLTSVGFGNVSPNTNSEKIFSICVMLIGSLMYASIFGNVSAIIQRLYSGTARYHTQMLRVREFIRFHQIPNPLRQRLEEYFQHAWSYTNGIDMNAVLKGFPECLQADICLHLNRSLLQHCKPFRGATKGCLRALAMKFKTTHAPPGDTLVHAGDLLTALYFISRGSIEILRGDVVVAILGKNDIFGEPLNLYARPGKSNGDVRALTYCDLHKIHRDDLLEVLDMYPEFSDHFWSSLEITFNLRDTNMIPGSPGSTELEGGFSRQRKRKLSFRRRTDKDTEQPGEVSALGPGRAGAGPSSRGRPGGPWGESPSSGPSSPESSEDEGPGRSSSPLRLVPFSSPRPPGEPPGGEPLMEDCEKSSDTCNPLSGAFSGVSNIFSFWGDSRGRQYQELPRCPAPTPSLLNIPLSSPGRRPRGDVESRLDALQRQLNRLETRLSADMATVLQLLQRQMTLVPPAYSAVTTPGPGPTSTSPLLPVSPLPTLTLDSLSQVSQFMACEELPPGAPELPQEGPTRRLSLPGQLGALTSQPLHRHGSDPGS
CYP2D6, sequence (P10635 whole entry): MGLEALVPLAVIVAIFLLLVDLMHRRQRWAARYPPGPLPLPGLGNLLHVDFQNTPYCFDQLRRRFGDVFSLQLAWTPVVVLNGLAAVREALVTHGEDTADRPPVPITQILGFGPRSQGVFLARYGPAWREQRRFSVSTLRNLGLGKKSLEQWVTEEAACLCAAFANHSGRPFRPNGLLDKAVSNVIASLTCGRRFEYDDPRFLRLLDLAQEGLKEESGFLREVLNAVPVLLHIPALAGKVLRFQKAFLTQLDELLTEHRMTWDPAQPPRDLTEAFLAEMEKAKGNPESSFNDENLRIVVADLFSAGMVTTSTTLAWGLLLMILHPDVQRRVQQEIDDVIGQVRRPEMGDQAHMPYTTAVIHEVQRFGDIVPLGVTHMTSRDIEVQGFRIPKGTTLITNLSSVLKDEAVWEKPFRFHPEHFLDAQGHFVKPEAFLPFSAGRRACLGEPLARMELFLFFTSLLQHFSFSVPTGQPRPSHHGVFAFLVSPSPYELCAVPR
CYP2C19, sequence (P33261 whole entry): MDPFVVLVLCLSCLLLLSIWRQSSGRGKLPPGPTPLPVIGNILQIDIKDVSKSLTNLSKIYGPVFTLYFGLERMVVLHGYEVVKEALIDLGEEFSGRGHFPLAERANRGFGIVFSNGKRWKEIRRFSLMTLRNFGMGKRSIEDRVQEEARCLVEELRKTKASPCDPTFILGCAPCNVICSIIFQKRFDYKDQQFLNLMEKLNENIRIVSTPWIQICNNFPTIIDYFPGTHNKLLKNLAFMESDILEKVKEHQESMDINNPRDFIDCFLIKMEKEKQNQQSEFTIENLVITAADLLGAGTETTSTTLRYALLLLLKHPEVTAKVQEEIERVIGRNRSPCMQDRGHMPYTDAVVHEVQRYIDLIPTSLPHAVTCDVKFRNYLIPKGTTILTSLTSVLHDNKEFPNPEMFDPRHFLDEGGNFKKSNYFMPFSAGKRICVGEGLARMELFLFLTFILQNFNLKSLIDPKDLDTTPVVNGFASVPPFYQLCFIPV
CYP3A4-M, sequence (P08684 whole entry): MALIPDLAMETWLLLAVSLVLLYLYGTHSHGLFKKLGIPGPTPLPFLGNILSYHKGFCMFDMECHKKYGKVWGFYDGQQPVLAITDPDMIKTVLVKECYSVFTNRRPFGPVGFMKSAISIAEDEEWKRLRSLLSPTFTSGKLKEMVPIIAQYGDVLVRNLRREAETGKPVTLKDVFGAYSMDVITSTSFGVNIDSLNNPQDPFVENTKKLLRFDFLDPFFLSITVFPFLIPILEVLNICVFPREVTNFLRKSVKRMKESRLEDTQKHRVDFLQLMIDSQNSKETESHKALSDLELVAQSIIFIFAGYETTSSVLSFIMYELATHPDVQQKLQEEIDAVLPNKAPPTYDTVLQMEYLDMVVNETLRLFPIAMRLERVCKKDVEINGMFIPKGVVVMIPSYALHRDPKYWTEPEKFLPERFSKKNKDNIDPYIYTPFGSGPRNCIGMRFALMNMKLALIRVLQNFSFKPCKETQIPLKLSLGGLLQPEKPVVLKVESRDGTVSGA
CYP2C9, sequence (P11712 whole entry): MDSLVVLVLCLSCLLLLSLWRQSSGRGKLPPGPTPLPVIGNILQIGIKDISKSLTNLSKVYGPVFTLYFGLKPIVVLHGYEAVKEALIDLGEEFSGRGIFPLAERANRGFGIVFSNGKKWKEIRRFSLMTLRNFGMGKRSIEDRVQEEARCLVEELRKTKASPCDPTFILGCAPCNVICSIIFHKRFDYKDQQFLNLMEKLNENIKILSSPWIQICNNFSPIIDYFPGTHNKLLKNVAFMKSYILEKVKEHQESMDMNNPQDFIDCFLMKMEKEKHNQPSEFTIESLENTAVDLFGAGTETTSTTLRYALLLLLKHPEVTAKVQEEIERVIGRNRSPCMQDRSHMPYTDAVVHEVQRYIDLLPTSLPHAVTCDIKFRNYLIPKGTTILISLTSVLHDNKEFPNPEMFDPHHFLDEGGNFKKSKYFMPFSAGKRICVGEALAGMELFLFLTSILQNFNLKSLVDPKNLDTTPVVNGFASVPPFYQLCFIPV

Structure (SMILES) | Red blood cells ([1]; 5 mg/kg) | Alanine aminotransferase ([1]; 5 mg/kg) | Glutamic-oxalacetic transaminase ([1]; 5 mg/kg) | Hematocrit ([1]; 5 mg/kg) | Hemoglobin ([1]; 5 mg/kg) [g/L] | Hepcidin ([1]; 5 mg/kg) [ng/mL] | Red blood cells ([1]; 10 mg/kg) | Alanine aminotransferase ([1]; 10 mg/kg) | Glutamic-oxalacetic transaminase ([1]; 10 mg/kg) | Hematocrit ([1]; 10 mg/kg) | Hemoglobin ([1]; 10 mg/kg) [g/L] | Hepcidin ([1]; 10 mg/kg) [ng/mL] | Effect on glutamic-oxalacetic transaminase [1] | Effect on liver glutamic-pyruvic aminotransferase [1] | Effect on HCT in rats with residual kidney ([1]; compared with the model group) | Effect on HGB in rats with residual kidney ([1]; compared with the model group) | Effect on hepcidin in rats with residual kidney ([1]; compared with the model group) | EPO OD value ([2]; 10 mg/kg) | EPO OD value ([2]; 50 mg/kg) | Promotion of expression of erythropoietin in vivo [2] | further results
O=C(O)CNC(=O)c1nc(Cl)c2nc(Oc3ccccc3)ccc2c1O [Link-118, 2-(2-phenoxy-5-hydroxy-8-chloro-1,7-naphthyridine-6-formamido) Acetic Acid] | 8.05 ± 0.46** 10^12/L | 37.83 ± 1.60 | 116.50 ± 14.43 | 45.88 ± 2.87 | 164 ± 10.99 | 2.5808 ± 1.0573 | 9.61 ± 1.06** 10^12/L | 35.50 ± 6.28 | 113.67 ± 2123 | 57.2 ± 6.67 | 203.83 ± 22.83 | 2.4472 ± 0.513 | no significant effect | no significant effect | significantly increase | significantly increase | significantly inhibit | D (D represents EPO OD value>3) | D (D represents EPO OD value>3) | significantly promote the expression of erythropoietin | Effect on RBC in rats with residual kidney ([1]; compared with the model group): significantly increase; Efficacy compared with FG-4592 at the same dose ([1]; rats with residual kidney): better than that of FG-4592; IC50 [3]: > 30 µM; Inhibitory effect on hERG current at the highest test concentration [3]: far from the IC50 value; IC50 [4]: > 50 µM; IC50 [5]: > 50 µM; IC50 [6]: > 50 µM; IC50 [7]: > 50 µM; Effect on PHD2 compared with compounds of Comparative Examples 1-3 [8]: better effect; IC50 [8]: 207 nM; HIF-2α protein expression compared with blank control [9]: higher than that of the blank control; fold induction at 30 µM [9]: 4.5 to 8.5
O=C(O)CNC(=O)c1nc(Br)c2nc(Oc3ccccc3)ccc2c1O [Link-121, 2-(2-phenoxy-5-hydroxy-8-bromo-1,7-naphthyridine-6-formamido) Acetic Acid] | 7.68 ± 0.46 10^12/L | 56.40 ± 25.89 | 130.80 ± 3126 | 43 ± 2.26 | 150.60 ± 8.62 | 2.8289 ± 0.7597 | 8.12 ± 1.11 10^12/L | 47.5 ± 7.23 | 12125 ± 16.11 | 46.86 ± 629 | 163.40 ± 24.44 | 2.5494 ± 1.3532 | no significant effect | no significant effect | significantly increase | significantly increase | reduced | C (C represents 2<EPO OD value<3) | D (D represents EPO OD value>3) | significantly promote the expression of erythropoietin | IC50 [3]: > 30 µM; Inhibitory effect on hERG current at the highest test concentration [3]: far from the IC50 value; IC50 [4]: > 50 µM; IC50 [5]: > 50 µM; IC50 [6]: > 50 µM; IC50 [7]: > 50 µM; Effect on PHD2 compared with compounds of Comparative Examples 1-3 [8]: better effect; IC50 [8]: 353 nM; HIF-2α protein expression compared with blank control [9]: higher than that of the blank control; fold induction at 30 µM [9]: 4.5 to 8.5
